# Experimental data taken from the supplement of paper PMC10307832.
# Legend:
# Assay in all cases: relative viability (nuclei count vs DMSO), 5 days (fraction); higher = more cells survive
# [1] = compound: CCN(CCO)CCCC(C)Nc1ccnc2cc(Cl)ccc12 [Hydroxychloroquine] + C[C@]1(O)C[C@@H](c2nc(-c3ccc4ccc(-c5ccccc5)nc4c3)c3c(N)nccn32)C1 [Linsitinib] (partner 1 µM)
# Procedure, shortened: (§1)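 Nuclei were stained with Hoechst during a one-step fixation (final 0.05% Triton X-100, 1% formaldehyde, 1 ug/ml Hoechst) carried out 5 days after dosing, then counted on 4× images. The cells, lung cancer lines in 1536-well plates, had been dosed by pin tool the day after seeding with one drug alone or a fixed anchor-drug dose plus five library-drug doses (not always all listed) in √10 steps. Relative viability is the nuclei count in treated wells divided by that in vehicle wells, and each value is the median of duplicate plates.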
# [2] = compound: CCN(CCO)CCCC(C)Nc1ccnc2cc(Cl)ccc12 [Hydroxychloroquine] + Nc1nc2[nH]cc(CCc3ccc(C(=O)N[C@@H](CCC(=O)O)C(=O)O)cc3)c2c(=O)[nH]1 [Pemetrexed] (partner 0.2 µM)
# Procedure, shortened: as §1
# [3] = compound: CCN(CCO)CCCC(C)Nc1ccnc2cc(Cl)ccc12 [Hydroxychloroquine] + O=C(CCCCCCC(=O)Nc1ccccc1)NO [Vorinostat] (partner 1 µM)
# Procedure, shortened: as §1
# [4] = compound: CCN(CCO)CCCC(C)Nc1ccnc2cc(Cl)ccc12 [Hydroxychloroquine] + O=C(c1cc(Cc2n[nH]c(=O)c3ccccc23)ccc1F)N1CCN(C(=O)C2CC2)CC1 [Olaparib] (partner 8 µM)
# Procedure, shortened: as §1
Cell Line,relative viability ([1]; first compound 0.5 µM),relative viability ([1]; first compound 1.581 µM),relative viability ([1]; first compound 5 µM),relative viability ([1]; first compound 15.81 µM),relative viability ([1]; first compound 50 µM),relative viability ([2]; first compound 0.5 µM),relative viability ([2]; first compound 1.581 µM),relative viability ([2]; first compound 5 µM),relative viability ([2]; first compound 15.81 µM),relative viability ([2]; first compound 50 µM),relative viability ([3]; first compound 0.5 µM),relative viability ([3]; first compound 1.581 µM),relative viability ([3]; first compound 5 µM),relative viability ([3]; first compound 15.81 µM),relative viability ([3]; first compound 50 µM),relative viability ([4]; first compound 0.5 µM),relative viability ([4]; first compound 1.581 µM),relative viability ([4]; first compound 5 µM),relative viability ([4]; first compound 15.81 µM),relative viability ([4]; first compound 50 µM)
201T,1.07,0.987,1.07,1,1.13,0.346,0.331,0.338,0.307,0.339,0.954,0.943,1.02,0.929,1.07,0.788,0.821,0.826,0.857,0.829
A-427,1.13,1.05,1.13,1.09,1.16,0.948,1.05,0.926,0.838,1.01,0.919,0.826,0.834,0.807,0.79,0.816,0.702,0.61,0.691,0.816
ABC-1,1,0.698,0.959,0.759,0.879,,,,,,1.33,1.19,1.11,0.934,1.19,0.98,0.889,0.797,0.847,0.727
BEN,0.87,0.929,0.872,0.973,1.15,0.928,0.719,0.733,0.855,0.684,0.632,0.563,0.638,0.635,0.608,0.843,1.08,1.04,1.03,1.02
CAL-12T,0.916,0.75,0.773,0.866,0.886,1.15,1.18,1.31,1.27,1.33,0.865,0.725,0.684,0.873,0.979,0.693,0.63,0.782,0.689,0.68
COR-L23,0.989,0.872,0.947,0.997,1.02,0.192,0.189,0.21,0.211,0.186,0.409,0.455,0.545,0.453,0.415,0.315,0.345,0.381,0.353,0.387
COR-L 105,1.08,1,0.905,0.851,0.814,1.12,1.01,0.967,1.05,1.08,0.87,0.807,0.628,0.743,0.804,0.675,0.612,0.596,0.519,0.744
Calu-6,0.864,0.881,1.11,0.938,0.942,,,,,,,,,,,0.65,0.607,0.615,0.673,0.569
ChaGo-K-1,,,,,,0.417,0.259,0.291,0.262,0.276,0.806,0.785,0.778,0.759,0.711,0.385,0.381,0.422,0.4,0.422
EBC-1,0.953,0.505,0.992,0.769,0.915,,,,,,,,,,,0.711,0.766,0.722,0.772,0.573
EKVX,0.929,1.01,1.09,0.955,1.05,0.385,0.394,0.32,0.385,0.423,0.688,0.609,0.677,0.767,0.648,0.978,0.755,0.769,0.763,1.04
EMC-BAC-2,0.817,0.772,0.87,0.82,0.852,0.49,0.439,0.434,0.313,0.411,0.492,0.443,0.375,0.425,0.328,0.508,0.439,0.472,0.484,0.442
EPLC-272H,1.13,1,1.2,1.12,1.25,,0.331,0.325,0.341,0.352,,0.359,0.433,0.392,0.488,,0.891,0.94,0.929,0.73
H3255,0.946,0.999,0.976,0.944,0.982,0.566,0.603,0.543,0.586,0.477,0.741,0.715,0.716,0.858,0.762,0.592,0.562,0.544,0.582,0.55
HARA,1.01,0.993,0.996,0.997,0.913,0.286,0.231,0.233,0.263,0.251,0.516,0.482,0.55,0.603,0.594,0.64,0.838,1.04,1.14,0.487
HCC-15,0.815,0.861,0.879,0.912,0.898,0.231,0.241,0.205,0.226,0.231,0.796,0.828,0.902,0.9,0.775,0.688,0.675,0.735,0.817,0.626
HCC-44,0.634,0.682,0.723,0.748,0.774,0.635,0.709,0.653,0.655,0.659,1.1,1.09,1.14,1.1,1.14,0.964,1.02,1.03,1.01,1.04
HCC-78,0.49,0.728,0.304,0.516,0.455,0.927,0.973,0.902,0.891,0.959,0.632,0.381,0.438,0.446,0.509,0.899,0.841,0.794,0.864,0.923
HCC-366,0.573,0.769,0.613,0.627,0.796,0.157,0.151,0.14,0.18,0.177,0.339,0.232,0.301,0.338,0.434,0.312,0.362,0.354,0.342,0.375

Cell Line,relative viability ([1]; first compound 0.5 µM),relative viability ([1]; first compound 1.581 µM),relative viability ([1]; first compound 5 µM),relative viability ([1]; first compound 15.81 µM),relative viability ([1]; first compound 50 µM),relative viability ([2]; first compound 0.5 µM),relative viability ([2]; first compound 1.581 µM),relative viability ([2]; first compound 5 µM),relative viability ([2]; first compound 15.81 µM),relative viability ([2]; first compound 50 µM),relative viability ([3]; first compound 0.5 µM),relative viability ([3]; first compound 1.581 µM),relative viability ([3]; first compound 5 µM),relative viability ([3]; first compound 15.81 µM),relative viability ([3]; first compound 50 µM),relative viability ([4]; first compound 0.5 µM),relative viability ([4]; first compound 1.581 µM),relative viability ([4]; first compound 5 µM),relative viability ([4]; first compound 15.81 µM),relative viability ([4]; first compound 50 µM)
HCC-827,1.01,0.927,0.922,0.956,0.977,0.225,0.275,0.259,0.259,0.23,0.811,0.873,0.786,0.759,0.571,0.645,0.618,0.591,0.54,0.561
HOP-62,0.95,0.873,1.15,0.868,0.987,0.331,0.312,0.33,0.344,0.343,0.584,0.628,0.573,0.574,0.69,0.368,0.232,0.443,0.496,0.394
IA-LM,0.569,0.281,0.66,0.383,0.695,,,,,,1.02,1.13,1.03,,1.06,0.756,0.887,0.8,0.892,0.754
LC-2-ad,0.92,0.782,0.93,0.863,0.818,0.272,0.273,0.244,0.261,0.282,0.707,0.691,0.694,0.702,0.697,0.673,0.664,0.738,0.725,0.772
LCLC-97TM1,0.2,0.189,0.215,0.172,0.173,0.199,0.226,0.169,0.179,0.175,0.778,0.742,0.772,0.766,0.797,0.529,0.371,0.324,0.453,0.29
LCLC-103H,1.16,1.08,1.07,1.01,1.16,0.439,0.504,0.368,0.455,0.473,0.859,0.718,0.752,0.829,0.793,0.754,0.688,0.84,0.766,0.78
LK-2,0.473,0.438,0.843,0.607,0.696,0.299,0.261,0.256,0.274,0.206,0.318,0.274,0.248,0.299,0.294,0.734,0.719,0.659,0.648,0.874
LOU-NH91,0.907,0.811,0.981,0.937,0.946,0.359,0.413,0.451,0.386,0.427,0.89,0.72,0.88,0.933,0.868,0.945,0.846,0.888,0.869,0.961
LU99A,0.525,0.478,0.437,0.527,0.503,0.179,0.194,0.157,0.198,0.206,0.559,0.474,0.465,0.435,0.507,0.261,0.265,0.228,0.299,0.254
NCI-H727,0.279,0.276,0.306,0.305,0.357,,,,,,1.07,1.22,1.23,0.969,1.33,0.738,0.673,0.653,0.73,0.629
NCI-H1299,1.03,0.633,1.03,0.973,1.06,,,,,,,,,,,0.997,0.974,0.947,1.01,0.917
NCI-H1563,1.03,1.04,1.18,1.06,1.17,0.888,0.692,0.724,0.78,0.875,,,,,,,,,,
NCI-H1648,,,,,,0.844,0.785,0.734,0.859,0.694,0.458,0.44,0.422,0.68,0.503,0.766,0.965,1.01,1.06,0.926
NCI-H1650,,,,,,0.337,0.331,0.342,0.397,0.346,0.48,0.593,0.634,0.663,0.608,0.804,0.781,0.788,0.881,0.917
NCI-H1703,0.601,0.418,0.8,0.614,1.09,,,,,,,,,,,0.424,0.431,0.556,0.467,0.446
NCI-H1792,0.534,0.588,0.583,0.536,0.56,0.694,0.831,0.755,0.641,0.859,,,,,,0.461,0.413,0.195,0.439,0.433
NCI-H2170,,,,,,0.341,0.265,0.255,0.233,0.29,0.784,0.839,0.829,0.878,0.95,0.647,0.568,0.679,0.528,0.734
NCI-H2342,,,,,,0.744,0.695,0.75,0.81,0.906,0.713,0.812,0.812,0.813,0.848,0.434,0.386,0.42,0.421,0.509
